Test results reported in patent US20250248973A1, “CANNABINOID RECEPTOR 1 ANTAGONISTS/INVERSE AGONISTS AND USES THEREOF” (Corbus Pharmaceuticals, Inc., priority 2022, published 2025).

Assays:
[1] = target: Human CB1 Receptor-1 (hCB1) (Homo sapiens (Human), UniProt P21554); assay: hCB1 Gai cyclic AMP (cAMP) TR-FRET assay, antagonism of EC80 CP55940 with forskolin; type: cell-based; details: hCB1 cells, 30 min pre-incubation
Description: (§1) Example 3. Biochemical Methods Human CB1 Receptor-1 (hCB1) and Human CB1 Receptor-1b (hCBib)
(§2) hCB1/hCB1 b Gai Cyclic AMP (cAMP) Assays: Cells were seeded in a 384-well plate at an appropriate density from frozen cells. The cAMP assays were performed according to the manufacturer's protocol using MULTISCREEN™ TR-FRET cAMP 1.0 No Wash Assay Kit. Cells (hCB1 or hCB1 b) were pre-incubated with customer compounds for 30 minutes at rt followed by addition of EC80 CP55940 concentration and Forskolin. Cells were then incubated for 20 minutes at 37C. The reaction was terminated by sequentially adding sequentially adding MULTISCREEN™ Eu-labeled cAMP and MULTISCREEN™ 650-labeled anti-cAMP antibody in lysis buffer. The plate was then incubated at rt for 30 minutes before reading fluorescent emissions at 620 nm and 665 with excitation at 314 nm on FlexStation III (Molecular Devices). The results are shown in Table 2 (“***” denotes an IC50<100 nM; “**” denotes an IC50 between 100 nM and 500 nM, and “*” denotes an IC50>500 nM).

[2] = target: Human CB1 Receptor-1b (hCB1b) (Homo sapiens (Human), UniProt P21554); assay: hCB1b Gai cyclic AMP (cAMP) TR-FRET assay, antagonism of EC80 CP55940 with forskolin; type: cell-based; details: hCB1b cells, 30 min pre-incubation, read-out: CB1b IC50
Description: as §1, §2

Chain of Human CB1 Receptor-1b (hCB1b) (P21554 other isoform, or with tags, fused parts or gaps): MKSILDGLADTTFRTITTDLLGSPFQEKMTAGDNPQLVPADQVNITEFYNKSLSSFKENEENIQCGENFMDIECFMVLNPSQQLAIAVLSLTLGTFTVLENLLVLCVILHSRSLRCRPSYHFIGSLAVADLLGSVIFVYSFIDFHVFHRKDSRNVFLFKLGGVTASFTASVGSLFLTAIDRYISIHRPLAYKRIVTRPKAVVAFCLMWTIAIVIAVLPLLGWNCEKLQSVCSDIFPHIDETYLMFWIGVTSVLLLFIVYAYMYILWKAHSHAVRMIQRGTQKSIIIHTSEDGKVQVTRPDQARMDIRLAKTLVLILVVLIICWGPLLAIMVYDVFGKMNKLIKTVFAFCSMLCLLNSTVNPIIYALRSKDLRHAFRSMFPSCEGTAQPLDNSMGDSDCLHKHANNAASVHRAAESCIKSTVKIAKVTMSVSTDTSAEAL
Chain of Human CB1 Receptor-1 (hCB1) (P21554 whole entry): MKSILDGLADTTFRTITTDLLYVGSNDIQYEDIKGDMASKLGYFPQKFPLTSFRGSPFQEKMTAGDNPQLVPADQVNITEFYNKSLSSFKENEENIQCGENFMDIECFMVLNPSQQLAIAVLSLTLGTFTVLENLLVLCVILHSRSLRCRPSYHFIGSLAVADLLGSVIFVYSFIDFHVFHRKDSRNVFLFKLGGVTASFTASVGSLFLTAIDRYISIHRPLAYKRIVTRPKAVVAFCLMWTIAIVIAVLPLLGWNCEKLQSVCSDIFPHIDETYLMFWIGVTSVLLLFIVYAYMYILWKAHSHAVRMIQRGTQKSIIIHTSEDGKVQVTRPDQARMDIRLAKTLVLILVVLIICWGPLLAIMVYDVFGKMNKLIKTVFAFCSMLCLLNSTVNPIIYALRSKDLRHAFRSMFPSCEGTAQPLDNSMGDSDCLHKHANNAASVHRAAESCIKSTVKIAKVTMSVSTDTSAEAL

SMILES	IC50 [1]	IC50 [2]
NS(=O)(=O)CCNC(=NS(=O)(=O)c1cccc(C(F)(F)F)c1)N1C[C@H](c2ccccc2)C(c2ccc(Cl)cc2)=N1 [Compound 27, (S)-3-(4-chlorophenyl)-4-phenyl-N-(2-sulfamoylethyl)-N′-((3-(trifluoromethyl)phenyl)sulfonyl)-4,5-dihydro-1H-pyrazole-1-carboximidamide]	< 100 nM	< 100 nM
NS(=O)(=O)[C@@H]1CC[C@@H](N/C(=N/S(=O)(=O)c2ccc(Cl)cc2)N2C[C@H](c3ccccc3)C(c3ccc(Cl)cc3)=N2)C1 (single isomer, unassigned) [Compound 141]	100 to 500 nM	100 to 500 nM
C[C@@H](CN/C(=N\S(=O)(=O)c1ccc(F)cc1)N1C[C@H](c2ccccc2)C(c2ccc(Cl)cc2)=N1)S(N)(=O)=O [Compound 13, (S,E)-3-(4-chlorophenyl)-N′-((4-fluorophenyl)sulfonyl)-4-phenyl-N-((S)-2-sulfamoylpropyl)-4,5-dihydro-1H-pyrazole-1-carboximidamide]	< 100 nM	< 100 nM
NS(=O)(=O)[C@H]1CC[C@@H](N/C(=N/S(=O)(=O)c2ccc(Cl)cc2)N2C[C@H](c3ccccc3)C(c3ccc(F)cc3)=N2)C1 [Compound 147, (S,Z)-N′-((4-chlorophenyl)sulfonyl)-3-(4-fluorophenyl)-4-phenyl-N-((1R,3S)-3-sulfamoylcyclopentyl)-4,5-dihydro-1H-pyrazole-1-carboximidamide]	100 to 500 nM	100 to 500 nM
NS(=O)(=O)N[C@H]1C[C@@H](N/C(=N\S(=O)(=O)c2ccc(C(F)(F)F)cc2)N2C[C@H](c3ccccc3)C(c3ccc(Cl)cc3)=N2)C1 (single isomer, unassigned) [Compound 245]	100 to 500 nM	< 100 nM
CC(CN/C(=N\S(=O)(=O)c1ccc(Cl)cc1)N1C[C@H](c2ccccc2)C(c2ccc(Cl)cc2)=N1)NS(N)(=O)=O (stereo partly drawn) [Compound 185, (4S,E)-3-(4-chlorophenyl)-N′-((4-chlorophenyl)sulfonyl)-4-phenyl-N-(2-(sulfamoylamino)propyl)-4,5-dihydro-1H-pyrazole-1-carboximidamide]	100 to 500 nM	< 100 nM
NS(=O)(=O)[C@H]1CC[C@H](N/C(=N/S(=O)(=O)c2ccc(Cl)cc2)N2C[C@H](c3ccccc3)C(c3ccc(F)cc3)=N2)C1 [Compound 151, (S,Z)-N′-((4-chlorophenyl)sulfonyl)-3-(4-fluorophenyl)-4-phenyl-N-((1S,3S)-3-sulfamoylcyclopentyl)-4,5-dihydro-1H-pyrazole-1-carboximidamide]	100 to 500 nM	< 100 nM
NS(=O)(=O)CCCCN/C(=N\S(=O)(=O)c1ccc(Cl)cc1)N1C[C@H](c2ccccc2)C(c2ccc(Cl)cc2)=N1 [Compound 99, (S,E)-3-(4-chlorophenyl)-N′-((4-chlorophenyl)sulfonyl)-4-phenyl-N-(4-sulfamoylbutyl)-4,5-dihydro-1H-pyrazole-1-carboximidamide]	> 500 nM	> 500 nM
NS(=O)(=O)CCNC(=NS(=O)(=O)c1cccnc1)N1C[C@H](c2ccccc2)C(c2ccc(F)cc2)=N1 [Compound 69, (S)-3-(4-fluorophenyl)-4-phenyl-N′-(pyridin-3-ylsulfonyl)-N-(2-sulfamoylethyl)-4,5-dihydro-1H-pyrazole-1-carboximidamide]	> 500 nM	> 500 nM
C[C@H](CS(N)(=O)=O)N/C(=N\S(=O)(=O)c1ccc(Cl)cc1)N1CC(c2ccccc2)C(c2ccc(Cl)cc2)=N1 (stereo in doubt) [Compound 3, (R,E)-3-(4-chlorophenyl)-N′-((4-chlorophenyl)sulfonyl)-4-phenyl-N-((R)-1-sulfamoylpropan-2-yl)-4,5-dihydro-1H-pyrazole-1-carboximidamide]	> 500 nM	100 to 500 nM

Further lines, results first:

IC50 [1]	IC50 [2]	SMILES
> 500 nM	> 500 nM	Cn1cnc(S(=O)(=O)N=C(NCCS(N)(=O)=O)N2C[C@H](c3ccccc3)C(c3ccc(Cl)cc3)=N2)c1 [Compound 67, (S)-3-(4-chlorophenyl)-N′-((1-methyl-1H-imidazol-4-yl)sulfonyl)-4-phenyl-N-(2-sulfamoylethyl)-4,5-dihydro-1H-pyrazole-1-carboximidamide]
< 100 nM	< 100 nM	C[C@H](CN/C(=N\S(=O)(=O)c1ccc(F)cc1)N1C[C@H](c2ccccc2)C(c2ccc(F)cc2)=N1)S(N)(=O)=O [Compound 53, (S,E)-3-(4-fluorophenyl)-N′-((4-fluorophenyl)sulfonyl)-4-phenyl-N-((R)-2-sulfamoylpropyl)-4,5-dihydro-1H-pyrazole-1-carboximidamide]
100 to 500 nM	< 100 nM	NS(=O)(=O)N[C@H]1C[C@H](N/C(=N\S(=O)(=O)c2ccc(Cl)cc2)N2C[C@H](c3ccccc3)C(c3ccc(Cl)cc3)=N2)C1 (single isomer, unassigned) [Compound 241]
< 100 nM	< 100 nM	NS(=O)(=O)N1CC(N/C(=N\S(=O)(=O)c2ccc(Cl)cc2)N2C[C@H](c3ccccc3)C(c3ccc(Cl)cc3)=N2)C1 [Compound 191, (S,E)-3-(4-chlorophenyl)-N′-((4-chlorophenyl)sulfonyl)-4-phenyl-N-(1-sulfamoylazetidin-3-yl)-4,5-dihydro-1H-pyrazole-1-carboximidamide]
100 to 500 nM	100 to 500 nM	C[C@@H](CS(N)(=O)=O)NC(=NS(=O)(=O)c1ccc(Cl)cc1)N1C[C@H](c2ccccc2)C(c2ccc(F)cc2)=N1 (single isomer, unassigned) [Compound 61]
< 100 nM	< 100 nM	CN(C)S(=O)(=O)CCN/C(=N\S(=O)(=O)c1ccc(F)cc1)N1C[C@H](c2ccccc2)C(c2ccc(F)cc2)=N1 [Compound 167, (S,E)-N-(2-(N,N-dimethylsulfamoyl)ethyl)-3-(4-fluorophenyl)-N′-((4-fluorophenyl)sulfonyl)-4-phenyl-4,5-dihydro-1H-pyrazole-1-carboximidamide]
> 500 nM	> 500 nM	CN(CCS(N)(=O)=O)/C(=N/S(=O)(=O)c1ccc(Cl)cc1)N1C[C@H](c2ccccc2)C(c2ccc(Cl)cc2)=N1 [Compound 109, (S,Z)-3-(4-chlorophenyl)-N′-((4-chlorophenyl)sulfonyl)-N-methyl-4-phenyl-N-(2-sulfamoylethyl)-4,5-dihydro-1H-pyrazole-1-carboximidamide]
100 to 500 nM	100 to 500 nM	Cn1ncc(S(=O)(=O)N=C(NCCS(N)(=O)=O)N2C[C@H](c3ccccc3)C(c3ccc(Cl)cc3)=N2)n1 [Compound 73, (S)-3-(4-chlorophenyl)-N′-((2-methyl-2H-1,2,3-triazol-4-yl)sulfonyl)-4-phenyl-N-(2-sulfamoylethyl)-4,5-dihydro-1H-pyrazole-1-carboximidamide]
100 to 500 nM	100 to 500 nM	CN(CCNS(N)(=O)=O)/C(=N\S(=O)(=O)c1ccc(Cl)cc1)N1C[C@H](c2ccccc2)C(c2ccc(Cl)cc2)=N1 [Compound 173, (S,E)-3-(4-chlorophenyl)-N′-((4-chlorophenyl)sulfonyl)-N-methyl-4-phenyl-N-(2-(sulfamoylamino)ethyl)-4,5-dihydro-1H-pyrazole-1-carboximidamide]
> 500 nM	> 500 nM	C[C@H](CS(N)(=O)=O)N/C(=N\S(=O)(=O)c1ccc(Cl)cc1)N1C[C@H](c2ccccc2)C(c2ccc(F)cc2)=N1 [Compound 57, (S,E)-N′-((4-chlorophenyl)sulfonyl)-3-(4-fluorophenyl)-4-phenyl-N-((R)-1-sulfamoylpropan-2-yl)-4,5-dihydro-1H-pyrazole-1-carboximidamide]
> 500 nM	> 500 nM	NS(=O)(=O)[C@H]1CCN(/C(=N/S(=O)(=O)c2ccc(Cl)cc2)N2C[C@H](c3ccccc3)C(c3ccc(Cl)cc3)=N2)C1 (single isomer, unassigned) [Compound 135]
< 100 nM	< 100 nM	NS(=O)(=O)CCN/C(=N\S(=O)(=O)c1ccc(C(F)(F)F)cc1)N1C[C@H](c2ccccc2)C(c2ccc(F)cc2)=N1 [Compound 43, (S,E)-3-(4-fluorophenyl)-4-phenyl-N-(2-sulfamoylethyl)-N′-((4-(trifluoromethyl)phenyl)sulfonyl)-4,5-dihydro-1H-pyrazole-1-carboximidamide]
< 100 nM	< 100 nM	CN(C)S(=O)(=O)CCN/C(=N\S(=O)(=O)c1ccc(Cl)cc1)N1C[C@H](c2ccccc2)C(c2ccc(Cl)cc2)=N1 [Compound 155, (S,E)-3-(4-chlorophenyl)-N′-((4-chlorophenyl)sulfonyl)-N-(2-(N,N-dimethylsulfamoyl)ethyl)-4-phenyl-4,5-dihydro-1H-pyrazole-1-carboximidamide]
